# Measured values taken from patent US20250340574A1, “MODULATORS OF CYSTIC FIBROSIS TRANSMEMBRANE CONDUCTANCE REGULATOR” (Vertex Pharmaceuticals Incorporated, priority 2022, published 2025).
# How the values were obtained:
# Format in all cases: cell-based
# [1] = target: T1, CFTR (F508del/MF-HBE cells) (Homo sapiens, UniProt P13569, DEL508-508); assay: Ussing chamber assay of CFTR-mediated short-circuit currents, Assay A (0.1 μM to 25 μM, 6 concentrations); conditions: with 33 nM potentiator and 18 μM Tezacaftor, 20% human serum; for Emax: 18-24 hours, read-out: A Max activity (%)
# T1 construct: human bronchial epithelial (HBE) cells derived from CF subjects heterozygous for F508del and a minimal function CFTR mutation (F508del/MF-HBE); endogenous in cells; host or cells: Primary human bronchial epithelial cells from CF subjects (F508del/MF genotype), differentiated at an air-liquid interface
# T1 sequence (P13569 with tags, fused parts or gaps DEL508-508): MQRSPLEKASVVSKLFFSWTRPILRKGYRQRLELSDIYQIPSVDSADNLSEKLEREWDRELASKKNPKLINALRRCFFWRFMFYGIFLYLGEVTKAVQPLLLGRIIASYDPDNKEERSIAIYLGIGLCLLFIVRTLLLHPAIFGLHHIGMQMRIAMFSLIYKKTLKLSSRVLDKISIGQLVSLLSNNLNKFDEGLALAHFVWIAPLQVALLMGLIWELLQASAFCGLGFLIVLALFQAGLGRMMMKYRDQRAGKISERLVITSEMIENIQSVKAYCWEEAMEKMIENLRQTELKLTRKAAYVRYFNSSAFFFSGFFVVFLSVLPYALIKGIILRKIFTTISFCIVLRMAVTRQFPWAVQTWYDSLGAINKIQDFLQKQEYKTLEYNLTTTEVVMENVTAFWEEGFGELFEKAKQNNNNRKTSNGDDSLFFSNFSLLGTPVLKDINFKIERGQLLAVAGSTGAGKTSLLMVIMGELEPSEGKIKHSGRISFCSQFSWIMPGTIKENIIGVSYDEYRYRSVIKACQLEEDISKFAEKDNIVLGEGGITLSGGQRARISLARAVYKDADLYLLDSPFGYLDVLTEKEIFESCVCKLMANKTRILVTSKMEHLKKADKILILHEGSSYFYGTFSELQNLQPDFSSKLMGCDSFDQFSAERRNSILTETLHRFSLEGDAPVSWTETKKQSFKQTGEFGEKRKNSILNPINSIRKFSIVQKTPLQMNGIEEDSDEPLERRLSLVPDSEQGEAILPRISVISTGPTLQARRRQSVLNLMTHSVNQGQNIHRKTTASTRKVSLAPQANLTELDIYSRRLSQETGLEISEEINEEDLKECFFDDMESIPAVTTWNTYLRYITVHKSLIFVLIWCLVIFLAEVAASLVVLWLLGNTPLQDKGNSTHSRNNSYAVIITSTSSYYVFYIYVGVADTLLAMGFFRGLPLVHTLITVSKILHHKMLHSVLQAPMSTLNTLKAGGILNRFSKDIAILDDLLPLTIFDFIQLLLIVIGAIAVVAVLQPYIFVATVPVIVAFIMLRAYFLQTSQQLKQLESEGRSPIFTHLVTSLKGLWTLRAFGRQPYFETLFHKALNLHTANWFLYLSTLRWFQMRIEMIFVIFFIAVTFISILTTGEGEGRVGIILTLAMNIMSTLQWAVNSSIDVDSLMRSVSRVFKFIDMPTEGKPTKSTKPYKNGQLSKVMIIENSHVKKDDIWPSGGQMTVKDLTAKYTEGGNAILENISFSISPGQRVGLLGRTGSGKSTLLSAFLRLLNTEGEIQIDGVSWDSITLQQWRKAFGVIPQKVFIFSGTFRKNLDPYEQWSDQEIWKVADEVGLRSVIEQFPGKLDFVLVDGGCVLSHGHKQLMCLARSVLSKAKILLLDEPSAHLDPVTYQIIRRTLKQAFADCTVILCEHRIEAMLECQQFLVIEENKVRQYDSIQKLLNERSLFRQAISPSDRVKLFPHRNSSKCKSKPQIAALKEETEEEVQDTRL
# Protocol: Ussing chamber experiments were performed using human bronchial epithelial (HBE) cells derived from CF subjects heterozygous for F508del and a minimal function CFTR mutation (F508del/MF-HBE) and cultured as previously described (Neuberger T, Burton B, Clark H, Van Goor F Methods Mol Biol 2011:741:39-54). After four days the apical media was removed, and the cells were grown at an air liquid interface for >14 days prior to use.
# To isolate the CFTR-mediated short-circuit (ISC) current, F508del/MF-HBE grown on Costar® Snapwell™ cell culture inserts were mounted in an Ussing chamber and the transepithelial ISC was measured under voltage-clamp recording conditions (Vhold=0 mV) at 37° C. The basolateral solution contained (in mM) 145 NaCl, 0.83 K2HPO4, 3.3 KH2PO4, 1.2 MgCl2, 1.2 CaCl2, 10 Glucose, 10 HEPES (pH adjusted to 7.4 with NaOH) and the apical solution contained (in mM) 145 NaGluconate, 1.2 MgCl2, 1.2 CaCl2, 10 glucose, 10 HEPES (pH adjusted to 7.4 with NaOH) and 30 μM amiloride to block the epithelial sodium channel. Forskolin (20 μM) was added to the apical surface to activate CFTR, followed by apical addition of a CFTR inhibitor cocktail consisting of BPO, GlyH-101, and CFTR inhibitor 172 (each at 20 μM final assay concentration) to specifically isolate CFTR currents. The CFTR-mediated ISC (μA/cm^2) for each condition was determined from the peak forskolin response to the steady-state current following inhibition.
# The activity of the CFTR corrector compounds on the CFTR-mediated ISC was determined in Ussing chamber studies as described above. The F508del/MF-HBE cell cultures were either incubated with the corrector compounds at a range of concentrations in combination with 33 nM (6R,12R)-17-amino-12-methyl-6,15-bis(trifluoromethyl)-13,19-dioxa-3,4,18-triazatricyclo[12.3.1.12,5]nonadeca-1(18),2,4,14,16-pentaen-6-ol and 18 μM Tezacaftor or were incubated with the corrector compounds at a single fixed concentration of 1 μM in combination with 44 nM (6R,12R)-17-amino-12-methyl-6,15-bis(trifluoromethyl)-13,19-dioxa-3,4,18-triazatricyclo[12.3.1.12,5]nonadeca-1(18),2,4,14,16-pentaen-6-ol and 18 μM Tezacaftor for 18-24 hours at 37° C. and in the presence of 20% human serum. The concentration of corrector compounds with 44 nM or 33 nM (6R,12R)-17-amino-12-methyl-6,15-bis(trifluoromethyl)-13,19-dioxa-3,4,18-triazatricyclo[12.3.1.12,5]nonadeca-1(18),2,4,14,16-pentaen-6-ol and 18 μM Tezacaftor during the 18-24 hours incubations was kept constant throughout the Ussing chamber measurement of the CFTR-mediated ISC to ensure compounds were present throughout the entire experiment. The efficacy and potency of the putative F508del correctors was compared to that of the known Vertex corrector, (14S)-8-[3-(2-{Dispiro[2.0.2.1]heptan-7-yl}ethoxy)-1H-pyrazol-1-yl]-12,12-dimethyl-2λ^6-thia-3,9,11,18,23-pentaazatetracyclo[17.3.1.111,14.05,10]tetracosa-1(22),5,7,9,19(23),20-hexaene-2,2,4-trione, in combination with 18 μM Tezacaftor and 1 μM Ivacaftor.
# • Assay A: 0.1 μM to 25 μM, 6 concentrations • Assay B: 0.00001 μM to 25 μM, 12 concentrations • Assay C: 0.026 μM to 25 μM, 6 concentrations • Assay D: Activity at single concentration of 1 μM
# [2] = target: T1, CFTR (F508del/MF-HBE cells); assay: Ussing chamber assay of CFTR-mediated short-circuit currents, Assay C (0.026 μM to 25 μM, 6 concentrations); conditions: with 33 nM potentiator and 18 μM Tezacaftor, 20% human serum; for Emax: read-out: C Max activity (%)
# Procedure, shortened: (§1)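 F508del/MF-HBE cells grown at air-liquid interface were incubated 18-24 h at 37 °C in 20% human serum with correctors plus 18 μM tezacaftor and a fixed partner compound (33 nM for concentration series, 44 nM at 1 μM). ISC was read at 0 mV after 20 μM forskolin, minus the post-inhibitor current.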
# [3] = target: T1, CFTR (F508del/MF-HBE cells); assay: Ussing chamber assay of CFTR-mediated short-circuit currents, Assay D (single concentration of 1 μM); conditions: with 44 nM potentiator and 18 μM Tezacaftor, 20% human serum; for D activity at 1 μM (%): 18-24 hours
# Procedure, shortened: as §1
Structure (SMILES),Emax [1],EC50 [1],EC50 [2],Emax [2],D act. at 1 μM (%) [3],Emax ([2]; 18-24 hours),D activity at 1 μM (%) [3]
Cc1cccc(C)c1-c1cc2nc(n1)NS(=O)(=O)c1cccc(c1)C(=O)N(C(=O)c1cncc(N(C)C3CCC3)n1)[C@H](CC(C)(C)C)CO2 [II-32],> 60%,< 1000 nM,–,–,–,–,–
Cc1cccc(C)c1-c1cc2nc(n1)NS(=O)(=O)c1cccc(c1)C(=O)N(Cc1cnc3oc(C4CC4)cc3n1)[C@H](CC1(C)CC1)CO2 [Compound I-25],> 60%,< 1000 nM,–,–,–,–,–
Cc1cccc(C)c1-c1cc2nc(n1)NS(=O)(=O)c1cccc(c1)C(=O)N(Cc1nc3c(C(C)C)cccc3o1)[C@H](CC(C)(C)C)CO2 [III-7],> 60%,< 1000 nM,–,–,–,–,–
Cc1cccc(C)c1-c1cc2nc(n1)NS(=O)(=O)c1cccc(c1)C(=O)N(Cc1cnc3oc(C(C)(C)C)cc3n1)[C@@H](C(C(C)C)C(C)C)CO2 [IV-36],–,–,< 1000 nM,> 60%,+++ (+++ is >60%),–,–
"Cc1cccc(CC(C)C)c1-c1nc2nc(c1C)OC[C@@H](CC(C)(C)C)N(Cc1cnc3cc(C4(C)CC4)n(C)c3n1)C(=O)c1cccc(c1)S(=O)(=O)N2 (atropisomer, axis not shown) [IV-19]",–,–,< 1000 nM,> 60%,+++ (+++ is >60%),–,–
Cc1cccc(C)c1-c1cc2nc(n1)NS(=O)(=O)c1cccc(c1)C(=O)N(Cc1cnc3oc(C(C)(C)C)cc3n1)[C@@H](C(C1CCC1)C1CCC1)CO2 [IV-33],–,–,3000 to 30000 nM,> 60%,+++ (+++ is >60%),–,–
"Cc1cccc(CC(C)C)c1-c1nc2nc(c1C)OC[C@@H](COC(C)C)N(Cc1cnc3cc(C(C)C)n(C)c3n1)C(=O)c1cccc(c1)S(=O)(=O)N2 (atropisomer, axis not shown) [Compound I-211]",–,–,< 1000 nM,–,–,> 60%,+++ (+++ is >60%)
"Cc1cccc(C2CC2)c1-c1nc2nc(c1C)OC[C@@H](CC(C)(C)C)N(Cc1cnc3oc(C4CC4)cc3n1)C(=O)c1cccc(c1)S(=O)(=O)N2 (atropisomer, axis not shown) [Compound I-152]",–,–,< 1000 nM,–,–,> 60%,+++ (+++ is >60%)
"Cc1cccc(C)c1-c1cc2nc(n1)NS(=O)(=O)c1cccc(c1)C(=O)N(Cc1cnc3oc(C(C)(C)CO)cc3n1)[C@H](CC13CC(C1)C3)CO2 [Compound I-113, (11R)-11-(1-bicyclo[1.1.1]pentanylmethyl)-6-(2,6-dimethylphenyl)-12-[[6-(2-hydroxy-1,1-dimethyl-ethyl)furo[2,3-b]pyrazin-2-yl]methyl]-2,2-dioxo-9-oxa-2λ^6-thia-3,5,12,19-tetrazatricyclo[12.3.1.14,8]nonadeca-1(18),4(19),5,7,14,16-hexaen-13-one]",–,–,3000 to 30000 nM,–,–,> 60%,+++ (+++ is >60%)
Cc1cccc(C)c1-c1cc2nc(n1)NS(=O)(=O)c1cccc(c1)C(=O)N(Cc1cnc3cc(C4CC4)n(C)c3n1)[C@@H](CCC1(C)CC1)CO2 (stereo in doubt) [Compound I-207],–,–,< 1000 nM,–,–,> 60%,+++ (+++ is >60%)
"Cc1cccc(CC(C)C)c1-c1nc2nc(c1C)OC[C@@H](CC(C)(C)C)N(Cc1cnc3nc(C4CC4)n(C)c3n1)C(=O)c1cccc(c1)S(=O)(=O)N2 (atropisomer, axis not shown) [Compound I-170]",–,–,< 1000 nM,–,–,> 60%,+++ (+++ is >60%)
Cc1cccc(C)c1-c1nc2nc(c1C)OC[C@@H](C[C@H]1CCCCO1)N(Cc1cnc3cc(C4CC4)n(C)c3n1)C(=O)c1cccc(c1)S(=O)(=O)N2 [Compound I-193],–,–,< 1000 nM,–,–,> 60%,+++ (+++ is >60%)
Cc1cccc(C)c1-c1cc2nc(n1)NS(=O)(=O)c1cccc(c1)C(=O)N(Cc1cnc3oc(C(C)(C)C)cc3n1)[C@H](CC1(C)CCC1)CO2 [IV-5],–,–,1000 to 3000 nM,> 60%,+++ (+++ is >60%),–,–
Cc1cccc(C)c1-c1nc2nc(c1C)OC[C@@H](CC(C)(C)C)N(Cc1cnc3oc(C(C)C)cc3n1)C(=O)c1cccc(c1)S(=O)(=O)N2 [Compound I-110],–,–,1000 to 3000 nM,–,–,> 60%,+++ (+++ is >60%)
Cc1cccc(C)c1-c1cc2nc(n1)NS(=O)(=O)c1cccc(c1)C(=O)N(Cc1ncc3cc(C4CC4)n(C)c3n1)[C@H](CC13CC(C1)C3)CO2 [Compound I-264],–,–,1000 to 3000 nM,–,–,> 60%,+++ (+++ is >60%)
Cc1cccc(C)c1-c1cc2nc(n1)NS(=O)(=O)c1cccc(c1)C(=O)N(Cc1cnc3cc(C(C)(C)C)n(C)c3n1)[C@@H](C(C(C)C)C(C)C)CO2 [IV-32],–,–,< 1000 nM,> 60%,+++ (+++ is >60%),–,–
Cc1cccc(C)c1-c1cc2nc(n1)NS(=O)(=O)c1cccc(c1)C(=O)N(Cc1cnc3oc(C4(C)CC4)cc3n1)[C@@H](C(C(C)C)C(C)C)CO2 (stereo in doubt) [IV-31],–,–,< 1000 nM,> 60%,+++ (+++ is >60%),–,–
Cc1cccc(C)c1-c1nc2nc(c1C)OC[C@@H](C[C@H]1CCCCO1)N(Cc1cnc3cc(C(C)C)n(C)c3n1)C(=O)c1cccc(c1)S(=O)(=O)N2 [Compound I-194],–,–,< 1000 nM,–,–,> 60%,+++ (+++ is >60%)
Cc1cccc(C)c1-c1nc2nc(c1C)OC[C@@H](CC(C)(C)C)N(Cc1cnc3cc(C(C)C)n(C)c3n1)C(=O)c1cccc(c1)S(=O)(=O)N2 [Compound I-168],–,–,< 1000 nM,–,–,> 60%,+++ (+++ is >60%)
"Cc1cccc(CC(C)C)c1-c1nc2nc(c1C)OC[C@@H](CC1(C)CC1)N(Cc1cnc3oc(C(C)C)cc3n1)C(=O)c1cccc(c1)S(=O)(=O)N2 (atropisomer, axis not shown) [IV-46]",–,–,< 1000 nM,> 60%,+++ (+++ is >60%),–,–
"Cc1cccc(CC2CCCC2)c1-c1nc2nc(c1C)OC[C@@H](CC(C)(C)C)N(Cc1cnc3oc(C4CC4)cc3n1)C(=O)c1cccc(c1)S(=O)(=O)N2 (atropisomer, axis not shown) [Compound I-195]",–,–,< 1000 nM,–,–,> 60%,+++ (+++ is >60%)
Cc1cccc(COC(C)C)c1-c1nc2nc(c1C)OC[C@@H](CC(C)(C)C)N(Cc1cnc3oc(C4CC4)cc3n1)C(=O)c1cccc(c1)S(=O)(=O)N2 [IV-39],–,–,1000 to 3000 nM,> 60%,+++ (+++ is >60%),–,–
CCC(C)(C)C[C@H]1COc2cc(-c3c(C)cccc3C)nc(n2)NS(=O)(=O)c2cccc(c2)C(=O)N1Cc1cnc2oc(C(C)(C)C)cc2n1 [IV-37],–,–,1000 to 3000 nM,> 60%,+++ (+++ is >60%),–,–
